From patent US20130052134A1, “PEG-PLGA-PLL POLYMER AND METHOD FOR PREPARING AND USING THE SAME AS THE DRUG AND GENE CARRIER” (Shanghai Cancer Institute, priority 2009, published 2013)

System: MDA-MB-231 mammary cancer
Assay: Therapeutic test in mice bearing MDA-MB-231 mammary cancer (tumor volume)
Type: in vivo, nude mice
Conditions: tail intravenous injection once every 4 days; treatment duration 36 days
Description: 0.2 ml of MDA-MB-231 mammary cancer cells (2×10^5) was subcutaneously injected to the axillary region near the forelimb of nude mice, and 2 weeks later, the tumor model was successfully established.
In the therapeutic test, corresponding normal saline, free mitoxantrone, drug-loaded mPEG-PLGA-PLL nanoparticles and drug-loaded mPEG-PLGA-PLL-RGD nanoparticles were given once every 4 days through tail intravenous injection, the tumor volume was subsequently measured, and the treatment duration was 36 days.

SMILES: O=C1c2c(O)ccc(O)c2C(=O)c2c(NCCNCCO)ccc(NCCNCCO)c21 [free mitoxantrone chloride, mitoxantrone chloride]
- tumor inhibition rate: 10.32%
